Experimental data from patent US5334456A, “Free-radical curable compositions” (priority 1992, dated 1994).
Where a name gives a salt, the structure may show the parent alone. Read-outs that look alike come from different tables or passages of the source.

Key:
[1] = Inhalation Kill (animals); format: in vivo; conditions: Table XVI
Procedure: Toxicity tests were performed on commercially available (meth) acrylate oligomers and diluents and on commercially available vinyl ether and maleate diluents.

[2] = not given; remark: listed apart in the source
[3] = Viscosity (Brookfield viscometer); format: physicochemical; conditions: 25° C., product as prepared
Procedure: The viscosity, expressed in pascal seconds (Pa s), was measured using a Brookfield Model RVTD viscometer operated in accordance with the instructions provided therewith. The temperature of each sample tested was 25° C.
The viscosity of the saturated ester oligomers having maleate end groups was determined utilizing a Brookfield RTV viscometer.

Row | SMILES | Inhalation Kill [1] | Eye Irritation (Table XVI, max. = 10) | Skin Irritation ([2]; Table XVI, max. = 8) | viscosity [3] | viscosity ([3]; listed as Component 3) [cP] | Eye Irritation (in vivo) | Skin Irritation ([2]; in vivo)
1 | C=CC(=O)OCC(C)(C)COC(=O)C=C [Neopentylglycol diacrylate] | 1 of 6 | 8 | 5 | – | – | – | –
2 | C=COCCCCOC(=O)/C=C\C(=O)OCC [Example 1, 4-vinyloxybutyl ethyl maleate] | – | – | – | about 36 cP | 36 | – | –
3 | C=CC(=O)OCCO [2-hydroxyethyl acrylate] | 1 of 6 | 9 | 6 | – | – | – | –
4 | C=CC(=O)OCCOc1ccccc1 [2-phenoxyethyl acrylate] | 0 of 6 | 1 | 3 | – | – | – | –
5 | C=CC(=O)OCCCCCCOC(=O)C=C [1,6-hexanediol diacrylate] | 0 of 6 | 2 | 3 | – | – | – | –
6 | CCCCOC(=O)/C=C\C(=O)OCCCC [Dubutyl maleate] | – | – | mild | – | – | – | –
7 | C=CC(=O)OCC(CO)(COC(=O)C=C)COC(=O)C=C [Pentaerythritol triacrylate] | 0 of 6 | 10 | 2 | – | – | – | –
8 | COC(=O)/C=C\C(=O)OC [Dimethyl maleate] | – | – | – | – | – | moderate | 5.47
9 | C=CC(=O)OCCOCCOC(=O)C=C [Diethyleneglycol diacrylate] | 0 of 6 | 9 | 5 | – | – | – | –
10 | CCOC(=O)/C=C\C(=O)OCC [Diethyl maleate] | – | mild | mild | – | – | – | –
